According to US20240060990A1, “SPATIAL SIGNALING NETWORKS FOR MULTIPLEXED DRUG RESPONSE MEASUREMENT AND MODELING” (Georgia Tech Research Corporation, priority 2022, published 2024):
Entries after “also recorded” stand apart in the source; their conditions may differ.

Key:
p-AKT(S473) = experiment: RapMIF multiplexed immunofluorescence in PC9 cells, p-AKT; type: cell-based, human; conditions: 40 nM, 48 hours vs control
Source text: RapMIF: The RapMIF setup consisted of an autosampler that transferred antibodies and performed washes of the sample automatically and controlled by a custom-written python code (FIGS. 10A-10D). The buffers used during the procedure are 1×PBS (D8537, Sigma), CSM, and Fluorophore bleaching solution. PBS 1× was the wash buffer for the stabilization of the cells and the tubes. CSM was the imaging buffer that helped in the annealing of antibodies with the cells. Fluorophore bleaching solution was the strip buffer used to remove staining after each cycle. The walls on the 96-well plate for the antibodies were pre-washed with 1×PBS. The well plate was covered with foil stickers to ensure a dark condition. […] Once the cells were mounted and the antibodies and buffers were ready for transfer, automatic staining was done by running Python code. […]
Cell multiplexing: Each coverslip prepared with cells was stained with 25 markers using a total of 11-12 cycles (FIG. 10C). […] To quantify the frequencies belonging to the signal that disappears after bleaching, a Fourier analysis of before and after bleaching was performed to indicate the difference in frequencies belonging to the signal.
Image intensity: From nuclei and cytosol cell masks, the mean intensity of markers in each cell area was calculated. […]

Cyclin E/CDK2 = experiment: RapMPI (multiplexed PLA) PPI counts in HCC827 cells; type: cell-based, human; conditions: 100 nM, 12 h, 5 PPI dataset
Method: (§1) Following that, the cells were then fixed and permeabilized with 1.6% formaldehyde in 1×PBS for 10 minutes at RT and 0.5% Triton X-100 for 10 minutes at RT, respectively. The cells were then blocked using a cell staining medium (CSM) containing 0.5% BSA, and 0.02% Sodium Azide in PBS. […] HCC827 cells were stained with p-ERK overnight followed by 1-hour incubation of secondary antibodies at RT, and 10 mins DAPI staining. The cells were then imaged at 40× magnification, and the intensity levels were analyzed. […] The coverslip was mounted to an acrylic holder for multiple cycles of staining.
(§2) RapMPI on cell cultures: For single color detection, each coverslip prepared with cells was stained with multiple PPIs with one PPI per cycle. The cells were fixed, permeabilized, and then ready for the following staining steps: 1) block the sample with Duolink blocking solution; 2) incubate it with one pair of proteins, conjugated to one PLUS and one MINUS oligonucleotide at 4° C. overnight.
(§3) PPI detection: PPI signals were detected using a custom algorithm leveraging a traditional image processing pipeline. More specifically, each PPI image was preprocessed as followed: images were first transformed using a top-hat filter of size 3 pixels to reduce the noise around PPI signals, then Laplacian of Gaussian images was used to detect bright local maxima as PPI signals. In 3D images, double detection of PPI was filtered out at the same position in consecutive Z stacks. After detecting all the PPI locations in 3D, PPI was observed within a 2.5-pixel radius (0.045 um) by creating a PPI neighborhood graph of radius threshold 2.5 pixels and getting all connected components in the graph. Finally, the mean position of the unique connected components in the graph was extracted as identified unique PPI signals in 3D.

p-AKT/mTOR = experiment: as above; type: cell-based, human; conditions: 100 nM, 12 h, 5 PPI dataset
Method: as §1, §2, §3

p-ERK/c-Myc = experiment: as above; type: cell-based, human
Method: as §1, §2, §3

Bim/Tom20 = experiment: RapMPI (multiplexed PLA) PPI counts in HCC827 cells, 9 PPI panel; type: cell-based, human; conditions: 12 hours, 9 PPI dataset
Method: as §1, §2
(§4) For multicolor detection, after permeabilization, the cells underwent the following steps: 1) block the sample with Duolink blocking solution; 2) incubate it with two pair of proteins, conjugated to one pair of oligonucleotides at 4° C. overnight. […] After imaging, the samples were incubated with DNase at a 1:50 dilution rate for 4 hours at RT, followed by 3 times 30% formamide washes and 3 times 1×PBS washes.
as §3

NF-κB/p-p90RSK = experiment: as above; type: cell-based, human; conditions: 12 hours, 9 PPI dataset
Method: as §1, §2, §4, §3

cyclin D1/CDK4 = experiment: as above; type: cell-based, human; conditions: 12 hours, 9 PPI dataset
Method: as §1, §2, §4, §3

sox2/oct4 = experiment: as above; type: cell-based, human; conditions: 12 hours, 9 PPI dataset
Method: as §1, §2, §4, §3

PC9 cells = conditions: 0 to 10 nM, 3-day treatment; cited from earlier work
p-AKT (S473) = conditions: PC9 cells; cited from earlier work
c-MYC = conditions: EGFRm-sensitive cells; cited from earlier work
NSCLC patients = conditions: phase 3 clinical trial, 80 mg once daily, vs other EGFR-TKI drugs; cited from earlier work

C=CC(=O)Nc1cc(Nc2nccc(-c3cn(C)c4ccccc34)n2)c(OC)cc1N(C)CCN(C)C [Osimertinib]
p-AKT expression (p-AKT(S473)): consistently downregulated; also recorded: consistent downregulation
interaction between cyclin E and CDK2 (PPI count) (Cyclin E/CDK2): effectively inhibited
p-AKT/mTOR interactions in the cytoplasm (p-AKT/mTOR): downregulated the p-AKT/mTOR pathway reducing the interactions in the cytoplasm
P-ERK/c-Myc interactions (PPI count) (p-ERK/c-Myc; 100 nM, 12 h, 5 PPI dataset): significantly increased interactions; also recorded: upregulation
p-ERK/c-Myc PPI (p-ERK/c-Myc; 12 hours, 9 PPI dataset): effectively inhibited
interactions between Tom20 and Bim (Bim/Tom20): Reduced interactions
NF-κB/p-p90RSK PPI (NF-κB/p-p90RSK): effectively inhibited
cyclin D1/CDK4 PPI (cyclin D1/CDK4): inhibitory effect
sox2/oct4 PPI (sox2/oct4): downregulation
cell survival rate (PC9 cells): decreased as the concentration has increased from 0 to 10 nM; also recorded: decreased as the concentration was increased from 0 to 10-nM
p-AKT (S473) level (p-AKT (S473)): effectively inhibit the p-AKT (S473) level
c-MYC degradation (c-MYC): induce the degradation of c-MYC
overall survival (NSCLC patients): longer; also recorded: extended
progression-free survival (NSCLC patients): longer; also recorded: extended
